Measurements from patent publication US20100125081A1, “NEW COMPOUNDS 574” (ASTRAZENECA AB, priority 2008, published 2010).

What follows are compounds tested against T1, human β-Secretase (Homo sapiens, UniProt P56817) (assay: TR-FRET assay (β-secretase enzyme, sBACE-Fc)). Conditions: soluble human β-secretase (AA 1-460) Fc fusion, substrate (Europium)CEVNLDAEFK(Qsy7) 100 nM, pH 4.5; unit inferred, nM taken.
T1 construct: soluble part of the human β-Secretase (AA 1-AA 460); Fc domain of IgG1 (C); made in house
T1 sequence (P56817 22-460): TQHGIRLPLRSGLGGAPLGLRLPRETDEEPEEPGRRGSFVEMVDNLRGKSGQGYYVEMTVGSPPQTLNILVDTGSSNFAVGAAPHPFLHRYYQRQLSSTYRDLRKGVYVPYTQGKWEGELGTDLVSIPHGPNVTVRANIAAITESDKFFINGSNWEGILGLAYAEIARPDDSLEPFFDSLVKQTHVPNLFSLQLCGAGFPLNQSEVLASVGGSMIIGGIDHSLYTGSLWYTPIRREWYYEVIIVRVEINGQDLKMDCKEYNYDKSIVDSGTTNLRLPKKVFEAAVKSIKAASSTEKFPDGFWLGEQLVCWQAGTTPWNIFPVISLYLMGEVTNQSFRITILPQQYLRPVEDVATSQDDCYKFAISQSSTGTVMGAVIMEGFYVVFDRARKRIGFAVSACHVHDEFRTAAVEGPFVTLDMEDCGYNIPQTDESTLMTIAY
Type: biochemical
Description: The β-secretase enzyme used in the TR-FRET is prepared as follows:
The cDNA for the soluble part of the human β-Secretase (AA 1-AA 460) was cloned using the ASP2-Fc10-1-IRES-GFP-neoK mammalian expression vector. The gene was fused to the Fc domain of IgG1 (affinity tag) and stably cloned into HEK 293 cells.
The enzyme (truncated form) was diluted to 6 μg/mL (stock 1.3 mg/mL) and the substrate (Europium)CEVNLDAEFK(Qsy7) to 200 nM (stock 120 μM) in reaction buffer (NaAcetate, chaps, triton x-100, EDTA pH4.5). The robotic systems Biomek FX and Velocity 11 were used for all liquid handling and the enzyme and substrate solutions were kept on ice until they were placed in the robotic system. Enzyme (9 μl) was added to the plate then 1 μl of compound in dimethylsulphoxide was added, mixed and pre-incubated for 10 minutes. Substrate (10 μl) was then added, mixed and the reaction proceeded for 15 minutes at room temperature. The reaction was stopped with the addition of Stop solution (7 μl, NaAcetate, pH 9). The fluorescence of the product was measured on a Victor II plate reader with an excitation wavelength of 340 nm and an emission wavelength of 615 nm. The assay was performed in a Costar 384 well round bottom, low volume, non-binding surface plate (Corning #3676). The final concentration of the enzyme was 2.7 μg/ml; the final concentration of substrate was 100 nM (Km of ˜250 nM). The dimethylsulphoxide control, instead of test compound, defined the 100% activity level and 0% activity was defined by wells lacking enzyme (replaced with reaction buffer).

Row | Compound | IC50
1 | COc1ccc(F)c(-c2cc(C3(c4ccnc(C(F)(F)F)c4)N=C(N)c4ncccc43)ccc2O)c1 (stereo not drawn) [Example 37, 5-(7-Amino-5-(2-(trifluoromethyl)pyridin-4-yl)-5H-pyrrolo[3,4-b]pyridin-5-yl)-2′-fluoro-5′-methoxybiphenyl-2-ol] | 206 nM
2 | COc1ccc(C2(c3cccc(-c4cnccn4)c3)N=C(N)c3ncccc32)cc1Cl (stereo not drawn) [Example 8, 5-(3-Chloro-4-methoxyphenyl)-5-(3-(pyrazin-2-yl)phenyl)-5H-pyrrolo[3,4-b]pyridin-7-amine] | 610 nM
3 | Cc1cc(C2(c3cccc(-c4cncnc4)c3)N=C(N)c3ncccc32)cc(C)c1OC(F)F (stereo not drawn) [Example 12, 5-(4-(Difluoromethoxy)-3,5-dimethylphenyl)-5-(3-(pyrimidin-5-yl)phenyl)-5H-pyrrolo[3,4-b]pyridin-7-amine] | 47 nM
4 | Cc1cc(C2(c3ccccc3)N=C(N)c3ncccc32)cc(C2CC2)c1OC(F)F (stereo not drawn) [Example 31, 5-[3-Cyclopropyl-4-(difluoromethoxy)-5-methyl-phenyl]-5-phenyl-pyrrolo[3,4-b]pyridin-7-amine] | 815 nM
5 | COc1ccc(C2(c3cccc(-c4cnccn4)c3)N=C(N)c3ncccc32)cc1C(F)F (stereo not drawn) [Example 23, 5-(3-(difluoromethyl)-4-methoxyphenyl)-5-(3-(pyrazin-2-yl)phenyl)-5H-pyrrolo[3,4-b]pyridin-7-amine] | 288 nM
6 | Cc1cc(C2(c3cccc(C#N)c3)N=C(N)c3ncccc32)cc(C2CC2)c1OC(F)F (stereo not drawn) [Example 32, 3-[7-Amino-5-(3-cyclopropyl-4-difluoromethoxy-5-methyl-phenyl)-5H-pyrrolo[3,4-b]pyridin-5-yl]-benzonitrile] | 61 nM
7 | Cc1cc(C2(c3cccc(-c4cncnc4)c3)N=C(N)c3ncccc32)cc(C)c1OCF (stereo not drawn) [Example 26, 5-(4-(Fluoromethoxy)-3,5-dimethylphenyl)-5-(3-(pyrimidin-5-yl)phenyl)-5H-pyrrolo[3,4-b]pyridin-7-amine] | 42 nM

Other lines, results leading:

Row | IC50 | Compound
8 | 212 nM | COc1ccc(C2(c3cccc(-c4cncnc4)c3)N=C(N)c3ncccc32)cc1C(F)F (stereo not drawn) [Example 24, 5-(3-(Difluoromethyl)-4-methoxyphenyl)-5-(3-(pyrimidin-5-yl)phenyl)-5H-pyrrolo[3,4-b]pyridin-7-amine]
9 | 1560 nM | NC1=NC(c2cccc(-c3cncnc3)c2)(c2ccnc(OCCCF)c2)c2cccnc21 (stereo not drawn) [Example 28, 5-(2-(3-Fluoropropoxy)pyridin-4-yl)-5-(3-(pyrimidin-5-yl)phenyl)-5H-pyrrolo[3,4-b]pyridin-7-amine]
10 | 222 nM | COc1ccc(C2(c3cccc(-c4cncnc4)c3)N=C(N)c3ncccc32)cc1C1CC1 (stereo not drawn) [Example 33, 5-(3-Cyclopropyl-4-methoxy-phenyl)-5-(3-pyrimidin-5-yl-phenyl)-5H-pyrrolo[3,4-b]pyridin-7-ylamine]
11 | 41 nM | COc1c(C)cc(C2(c3cccc(-c4cncnc4)c3)N=C(N)c3ncccc32)cc1F (stereo not drawn) [Example 36, 5-(3-Fluoro-4-methoxy-5-methylphenyl)-5-(3-(pyrimidin-5-yl)phenyl)-5H-pyrrolo[3,4-b]pyridin-7-amine]
12 | 1800 nM | N#Cc1ccnc(-c2cccc(C3(c4ccnc(C(F)(F)F)c4)N=C(N)c4ncccc43)c2)c1 (stereo not drawn) [Example 22, 2-(3-(7-Amino-5-(2-(trifluoromethyl)pyridin-4-yl)-5H-pyrrolo[3,4-b]pyridin-5-yl)phenyl)isonicotinonitrile]
13 | 400 nM | NC1=NC(c2cccc(-c3cccc(Cl)c3)c2)(c2ccnc(C(F)(F)F)c2)c2cccnc21 (stereo not drawn) [Example 1, 5-(3′-Chlorobiphenyl-3-yl)-5-(2-(trifluoromethyl)pyridin-4-yl)-5H-pyrrolo[3,4-b]pyridin-7-amine]
14 | 30 nM | NC1=NC(c2cccc(-c3cncnc3)c2)(c2ccc(OC(F)F)c(CCF)c2)c2cccnc21 (stereo not drawn) [Example 34, 5-[4-Difluoromethoxy-3-(2-fluoro-ethyl)-phenyl]-5-(3-pyrimidin-5-yl-phenyl)-5H-pyrrolo[3,4-b]pyridin-7-ylamine]
15 | > 31600 nM | NC1=NC(c2cccc(-c3cncnc3)c2)(c2ccnc(C(F)(F)F)c2)c2cccnc21 (single isomer, unassigned) [25, Isomer 1]
